Like-named read-outs stand apart in the source and are kept apart here.
Key:
Assay type in all cases: cell-based
[1] = system: Q30R in genotype 1a NS5A, 1a Rluc replicon transfected into Huh-7 cured-51 cells; test: HCV replicon assay, resistance mutant 1a Q30R; details: Hepatitis C virus, Huh-7, read-out: 1a Q30R
Description: Evaluation of cell-based anti-HCV activity: Antiviral potency (EC50) was determined using a Renilla luciferase (RLuc)-based HCV replicon reporter assay. To perform the assay for genotype 1 and 2a JFH-1, HCV 1b RLuc cells (harboring a dicistronic genotype 1b Con1 replicon that encodes a RLuc reporter), or HCV 1a RLuc cells (harboring a dicistronic genotype 1a H77 replicon that encodes a RLuc reporter), or HCV 2a JFH-1 Rluc cells (harboring a dicistronic genotype 2a JFH-1 replicon that encodes a RLuc reporter) were dispensed into 384-well plates. To perform the assay for genotype 2a (with M31 present) or 2b, HCV 2a Rluc or 2b Rluc cells (both with M31 present) harboring a dicistronic NS5A chimeric genotype 2a JFH-1 replicon that encodes a RLuc reporter and either genotype 2a J6 strain NS5A gene or genotype 2b MD2b-1 NS5A gene (based on Los Alamos HCV database isolates, both with M31 present) respectively, were dispensed into 384-well plates. To perform the assay for genotype 3 and 4, HCV 3a RLuc or 4a Rluc cells harboring a dicistronic NS5A chimeric genotype 1b Con1 replicon that encodes a RLuc reporter and either a consensus genotype 3a NS5A gene or genotype 4a NS5A gene (based on Los Alamos HCV database isolates) respectively, were dispensed into 384-well plates. Compounds were re-suspended in DMSO at a concentration of 10 mM and serially diluted in DMSO either manually or using an automated pipeting instrument. Serially diluted compounds were mixed with cell culture media and added to the seeded cells. […] 72 hours later, cells were lysed and Renilla luciferase activity quantified as recommended by the manufacturer (Promega-Madison, Wis.). Non-linear regression was performed to calculate EC50 values.
To determine the antiviral potency (EC50) against resistance mutants, resistance mutations, including M28T, Q30R, Q30H, L31M, and Y93C in genotype 1a NS5A and Y93H in genotype 1b NS5A, were introduced individually into either 1a Rluc or 1b Rluc replicons described above by site directed mutagenesis. Replicon RNA of each resistant mutant was transfected into Huh-7 cured-51 cells and antiviral potency was determined on these transfected cells as described above.

[2] = system: HCV 2a JFH-1 Rluc cells (dicistronic genotype 2a JFH-1 replicon, RLuc reporter); test: microbe, parasite or virus in culture; details: Hepatitis C virus, read-out: 2a JFH
Method in brief: (§1)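 Replicon cells stably carrying the listed RLuc-encoding dicistronic replicons were seeded and treated with DMSO serial dilutions of compound (10 mM stocks) diluted into culture medium. After 72 h, cells were lysed and Renilla luciferase activity measured. EC50 was derived by non-linear regression.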

[3] = system: HCV 4a Rluc cells (NS5A chimeric genotype 1b Con1 replicon with genotype 4a NS5A gene); test: microbe, parasite or virus in culture; details: Hepatitis C virus, read-out: 4a
Method in brief: as §1

[4] = system: HCV 1a RLuc cells (dicistronic genotype 1a H77 replicon, RLuc reporter); test: microbe, parasite or virus in culture; details: Hepatitis C virus, read-out: 1a
Method in brief: as §1

[5] = system: HCV 3a RLuc cells (NS5A chimeric genotype 1b Con1 replicon with consensus genotype 3a NS5A gene); test: microbe, parasite or virus in culture; details: Hepatitis C virus
Method in brief: as §1

[6] = system: HCV 1b RLuc cells (dicistronic genotype 1b Con1 replicon, RLuc reporter); test: microbe, parasite or virus in culture; details: Hepatitis C virus, read-out: 1b (nM)
Method in brief: as §1

[7] = system: HCV 2a Rluc cells (NS5A chimeric genotype 2a JFH-1 replicon with genotype 2a J6 strain NS5A gene, M31 present); test: HCV replicon reporter assay, genotype 2a J6 (M31 present); details: Hepatitis C virus, read-out: 2a J6
Method in brief: as §1

[8] = system: HCV 2b Rluc cells (NS5A chimeric genotype 2a JFH-1 replicon with genotype 2b MD2b-1 NS5A gene, M31 present); test: microbe, parasite or virus in culture; details: Hepatitis C virus, read-out: 2b
Method in brief: as §1

[9] = genotype 2a JFH-1 RLuc replicon
[10] = read-out: 3a, genotype 3a NS5A chimeric replicon

Row | SMILES | EC50 [1] [nM] | EC50 ([2]; genotype 2a JFH-1 replicon) [nM] | EC50 [3] [nM] | EC50 ([4]; genotype 1a replicon) [nM] | EC50 ([5]; read-out: 3a, genotype 3a replicon) [nM] | EC50 [6] [nM] | EC50 [7] [nM] | EC50 [2, 9] [nM] | EC50 ([4]; genotype 1a H77 RLuc replicon) [nM] | EC50 [8] [nM] | EC50 [5, 10] [nM]
1 | COC(=O)N[C@H](C(=O)N1CCC[C@H]1c1nc(Cl)c(-c2cc3c4c(c2)OCc2cc(-c5[nH]c([C@@H]6CCCN6C(=O)[C@@H](NC(=O)OC)C(C)C)nc5Cl)cc(c2-4)OC3)[nH]1)C(C)C [Example 384] | 1 to 44 | 0.001 to 0.999 | 0.001 to 0.99 | 0.001 to 0.999 | 0.001 to 0.99 | 0.013 | 1 to 44 |  |  |  | 
2 | COC(=O)N[C@H](C(=O)N1CCC[C@H]1c1nc2ccc3cc(-c4ccc5c(ccc6nc([C@@H]7C[C@H](COC(F)F)CN7C(=O)[C@H](NC(=O)C7CC7)c7ccccc7)[nH]c65)c4)ccc3c2[nH]1)C(C)C [Example 547] |  |  | 0.001 to 0.99 |  |  | 0.005 | 0.001 to 0.999 | 0.001 to 0.999 | 0.001 to 0.999 | 0.001 to 0.999 | 0.001 to 0.99
3 | CC#Cc1cc(-c2cnc([C@@H]3CCCN3C(=O)[C@@H](NC(=O)OC)C(C)C)[nH]2)ccc1-c1ccc2c(ccc3nc([C@@H]4C[C@H](COC)CN4C(=O)[C@H](NC(=O)OC)c4ccccc4)[nH]c32)c1 [Example 549] |  |  | 0.001 to 0.99 |  |  | 0.007 | 0.001 to 0.999 | 0.001 to 0.999 | 0.001 to 0.999 | 0.001 to 0.999 | 0.001 to 0.99
4 | COC[C@H]1C[C@@H](c2nc3ccc4cc(-c5ccc6c(ccc7nc([C@@H]8C[C@H](C)CN8C(=O)[C@@H](NC(=O)OC)C(C)C)[nH]c76)c5)ccc4c3[nH]2)N(C(=O)[C@H](NC(=O)OC)c2ccccc2)C1 [Example 553] |  |  | 0.001 to 0.99 |  |  | 0.014 | 0.001 to 0.999 | 0.001 to 0.999 | 0.001 to 0.999 | 0.001 to 0.999 | 0.001 to 0.99
5 | COC(=O)N[C@H](C(=O)N1C[C@@H](C)C[C@H]1c1ncc(-c2cc3c4c(c2)OCc2cc(-c5cnc([C@@H]6C[C@H](C)CN6C(=O)[C@H](NC(=O)OC)c6ccccc6)[nH]5)cc(c2-4)OC3)[nH]1)C(C)C [Example 564] |  |  | 0.001 to 0.99 |  |  | 0.012 | 1 to 44 | 0.001 to 0.999 | 0.001 to 0.999 | 0.001 to 0.999 | 0.001 to 0.99
6 | COC[C@H]1C[C@@H](c2ncc(-c3ccc(-c4ccc(-c5cnc([C@@H]6C[C@H](SC)CN6C(=O)[C@@H](NC(=O)OC)C(C)C)[nH]5)cc4)cc3)[nH]2)N(C(=O)[C@H](NC(=O)C2CC2)c2ccccc2)C1 [Example 570] |  |  | 0.001 to 0.99 |  |  | 0.033 | 0.001 to 0.999 | 0.001 to 0.999 | 0.001 to 0.999 | 0.001 to 0.999 | 0.001 to 0.99
7 | COC(=O)N[C@H](C(=O)N1CCCC1c1ncc(-c2ccc3c(c2)COc2cc4c(ccc5nc([C@@H]6C[C@@H]7CCC[C@@H]7N6C(=O)[C@@H](NC(=O)OC)C(C)C)[nH]c54)cc2-3)[nH]1)C(C)C (some centres unmarked) [Example 576] |  |  | 0.001 to 0.99 |  |  | 0.014 | 1 to 44 | 0.001 to 0.999 | 0.001 to 0.999 | 0.001 to 0.999 | 0.001 to 0.99
8 | COC(=O)N[C@H](C(=O)N1C[C@@H](C)C[C@H]1c1ncc(-c2cc3c4c(c2)OCc2cc(-c5cnc([C@@H]6C[C@H](C)CN6C(=O)[C@H](NC(=O)C6C(C)(C)C6(C)C)c6ccccc6)[nH]5)cc(c2-4)OC3)[nH]1)C(C)C [Example 577] |  |  | 0.001 to 0.99 |  |  | 0.017 | > 44 | 0.001 to 0.999 | 0.001 to 0.999 | 1 to 44 | 0.001 to 0.99

From patent US10344019B2 (priority 2010, dated 2019)
